Assay [1] has as its system LPS-stimulated J774 mouse macrophages cells. The experiment in a line: RNA sequencing, gene expression profiles of LPS-stimulated cells. It is filed as cell-based. The settings on record: 10 μM, 6 h, RNAseq. The procedure:
Experimental procedure: RNA was extracted from 5 million of LPS-stimulated J774 mouse macrophages cells treated for 6 h with DMSO (negative control), reference iBETs (JQ1 and iBET726, 1 μM) and lead compounds (MLE83 and JUP102, 10 μM) using Trizol (Invitrogen) according to manufacturer's instructions. RNA sequencing was subcontracted to BGI Genomics ([…] Sequencing Technology). FASTQ sequencing files were aligned to mouse genome (GRCm39 assembly) using STAR (v2.7.1a). Bam files were counted using HTSeq framework (v0.11.2). Reads normalization and differential analysis was performed suing SARTools and DESeq2 (v1.22.2) R packages. Genes were considered as differentially expressed when |log 2FC|>1 AND p value <0.05 between control and treated conditions. Gene Set Enrichment Analysis was performed using GSEA v4.2.1 software against the hallmark v7.5 gene sets from the Broad Institute Molecular Signature Database. A detailed description of GSEA methodology and interpretation is provided online (http://www.broadinstitute.org/gsea/doc/GSEAUserGui-deFrame.html).

A further assay has as its target Brd4 BD2 (Homo sapiens (Human), UniProt O60885). The assay can be described thus: HTRF evaluation of bromodomain inhibitors, Brd4 BD2. It is filed as binding. Particulars: for IC50: HTRF, H4ac4 peptide 600 nM, 24 h at 4° C.; for Selectivity BD2/BD1: ratio of the BD1 and BD2 IC50. The procedure: (§1) HTRF reagents and buffers were purchased from Cisbio Bioassays. The assay used a terbium (Ill) cryptate donor reagent conjugated to an anti-GST antibody (MAb anti-GST-Tb; GSTTLA), a streptavidin-conjugated acceptor reagent (streptavidin-d2) and Cisbio proprietary buffers (EPlgeneous Binding Domain Diluent and Detection buffer, respectively). GST-tagged bromodomains (BDs) were expressed in E. coli and purified using standard procedures. Incubation of GST-tagged BDs with biotinylated acetylated H4 peptide (H4K5acK8acK12acK16ac, here named H4ac4) brings the donor and acceptor into close proximity and allows for a FRET reaction. GST-tagged proteins in 25 mM Hepes pH 7.5, 150 mM NaCl, 0.5 mM DTT were assayed at a final concentration of 5 nM. Biotinylated H4ac4 peptides were used at a final concentration of 50, 600 nM in assays involving Brd4 BD1, Brd4 BD2, respectively. The antibody-conjugated donor was used at 0.5 nM and the streptavidin-conjugated acceptor was used at ⅛ of the H4ac4 peptide concentration. Inhibitors were tested by performing an eleven-point dilution series with a maximal final concentration of […]. These concentrations allowed a fixed DMSO concentration at 0.2%, critical for a Z′ factor ≥0.8. Components were incubated at 4° C. for 4 h (BD1) or for 24 h (BD2). Experiments were performed in 384-well white plates (Greiner ref. 781080) and analyzed in a ClarioStar plate reader (BMG LABTECH, excitation at 330 nm and emission at 620 and 665 nm, corresponding to the donor and acceptor emission peaks, respectively; the 665/620 ratio is used to calculate the specific HTRF signal) with an integration delay of 60 μs and an integration time of 400 μs.

A further assay deals with J774 mouse macrophages. The assay can be described thus: Cytotoxicity and anti-inflammatory activity (IL-6/TNFα, AI score) after iBET/LPS treatment. It is filed as cell-based. The settings on record: AI score versus cytotoxicity, FIG. 7. The protocol: J774 mouse macrophages were cultured in DMEM 10% Fetal Calf Serum (FCS) 1% penicillin and streptomycin at 37° C. 5% CO2. […]. Cells were then seeded at 250,000 cells/ml and treated with 1 μM, 10 μM and 100 μM for each iBET and, then, after 30 min, with 100 μg/ml LPS (lipopolysaccharides, Cell Signaling Technology ref: 14011S) to induce inflammatory response. After 24 h, cytotoxicity was evaluated using CytoTox-ONE™ Homogeneous Membrane Integrity Assay and/or CellTiter 96 Non-radioactive Cell Proliferation Assay (Promega) according to manufacturer's instructions. IL6 and TNFα secretion were assessed using respectively IL-6 Mouse ELISA assay and TNFα Mouse ELISA assay (Invitrogen) according to manufacturer's instructions.
Experimental procedure: J774 mouse macrophages were cultured in DMEM 10% Fetal Calf Serum (FCS) 1% penicillin and streptomycin at 37° C. 5% CO2. […] After 24 h, cytotoxicity was evaluated using the Cell Proliferation Kit I (Roche) according to manufacturer's instructions. IC50 were calculated using GraphPad (Prism) using non linear regression curve fit. IL6 and TNF[…] secretion was assessed using respectively IL-6 Mouse and TNFα Mouse ELISA assay (Invitrogen) on cell culture supernatants according to manufacturer's instructions. […]

A further assay addresses Brd4 BD1 (Homo sapiens (Human), UniProt O60885). The experiment in a line: HTRF evaluation of bromodomain inhibitors, Brd4 BD1. It is filed as binding. The settings on record: H4ac4 peptide 50 nM, 4 h at 4° C. The protocol:
as §1

This is an account of results in patent US20240287025A1, “TETRAHYDROQUINOLINE (THQ) COUMPOUNDS” (Centre National de la Recherche Scientifique, priority 2021, published 2024).

As for `C=CCCCC(=O)Nc1ccc(-c2ccc3c(c2)[C@@H](n2cc(-c4ccccc4)nn2)[C@H](C)[C@H](CC)N3C(C)=O)cc1` [XD, N-(4-((2S,3R,4S)-1-acetyl-2-ethyl-3-methyl-4-(4-phenyl-1H-1,2,3-triazol-1-yl)-1,2,3,4-tetrahydroquinolin-6-yl)phenyl)hex-5-enamide], in assay [1], the “GSEA analysis, iBET-associated cellular responses” value was “reduces inflammatory response and MYC signaling”; the “number of genes impacted, times fewer than JUP102” value is on record as ~10 times. Also, at Brd4 BD2, half-maximal inhibition (IC50) required 620 nM and the “Selectivity BD2/BD1” value worked out at 1.1. In the assay on J774 mouse macrophages, the inflammatory activity/toxicity ratio result is “best inflammatory activity/toxicity ratio”. Moreover, the half-inhibitory concentration (IC50) on Brd4 BD1 was determined as 562 nM.
Consider `C#CCOCCOCCOCc1cn([C@@H]2c3cc(C(=O)OC)ccc3N(C(C)=O)[C@@H](CC)[C@H]2C)nn1` [XQ], for which, in assay [1], the “GSEA analysis, iBET-associated cellular responses” value was “reduces inflammatory response and MYC signaling”. Besides, the figures for the IC50 at Brd4 BD2 and against Brd4 BD1 were 1490 nM and 16600 nM, respectively. Further, the “Selectivity BD2/BD1” value at Brd4 BD2 came to 11.2. Also, the inflammatory activity/toxicity ratio entry in the assay with J774 mouse macrophages is listed as “best inflammatory activity/toxicity ratio”.
For the compound `CC[C@H]1[C@@H](C)[C@H](n2cc(COCCOCCOCCOCc3cn(C4c5cc(C(=O)OC)ccc5N(C(C)=O)[C@@H](CC)[C@H]4C)nn3)nn2)c2cc(C(=O)OC)ccc2N1C(C)=O` (stereo partly drawn) [XW, Dimethyl-4,4′-((2,5,8,11-tetraoxadodecane-1,12-diyl)bis(1H-1,2,3-triazole-4,1-diyl))(2S,2′S,3R,3′R,4S,4′S)-bis(1-acetyl-2-ethyl-3-methyl-1,2,3,4-tetrahydroquinoline-6-carboxylate)], on Brd4 BD2, half-maximal inhibition (IC50) required 95.4 nM and the “Selectivity BD2/BD1” value came out at 19.4. The compound also showed a half-maximal inhibitory concentration (IC50) at Brd4 BD1 of 1850 nM.
Consider `CCCCCc1cn([C@H]2c3cc(C(=O)OC)ccc3N(C(C)=O)[C@H](CC)[C@@H]2C)nn1` [ent-XF], for which the values for the IC50 against Brd4 BD2 and against Brd4 BD1 were 8330 nM and 6300 nM, respectively. Also, the “Selectivity BD2/BD1” value on Brd4 BD2 is listed as 0.8.
In the same order, the values of `CC[C@H]1[C@@H](C)[C@H](n2cc(C3CCCCC3)nn2)c2cc(C(=O)OC)ccc2N1C(C)=O` [XO, Methyl-(2S,3R,4S)-1-acetyl-4-(4-cyclohexyl-1H-1,2,3-triazol-1-yl)-2-ethyl-3-methyl-1,2,3,4-tetrahydroquinoline-6-carboxylate] are 860 nM, 5520 nM and 6.4.
Take `CC[C@@H]1[C@H](C)[C@@H](NC(=O)OC(C)C)c2cc(C(=O)OC)ccc2N1C(C)=O` [ent-XJ]: the IC50 against Brd4 BD2 was 17700 nM; on Brd4 BD1 it was > 100000 nM.
